From patent US9833497B2, “Human originated EGF domain proteins and use of the same” (CHENGDU SOURCEBIO LIMITED-LIABILITY COMPANY, priority 2013, dated 2017)

How the values were obtained:
Assay type in all cases: cell-based
[1] = tested on: E. coli DH5α; experiment: Antibacterial activity: MIC and growth curve against E. coli DH5α in 96-well plate; details: minimal inhibitory concentration against E. coli DH5α; 96-well plate, 5×10^5 CFU/mL, 37° C., judged after 8 h
Procedure, shortened: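 Log-phase bacteria (OD600 ~0.5) resuspended in LB at 5×10^5 CFU/mL, exposed to recombinant protein at 50, 25, 12.5 μg/mL final in triplicate, 37 °C shaking at 175 rpm. OD600 read every 30 min; MIC is lowest concentration showing no growth.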

[2] = tested on: E. coli BL21; experiment: MIC against Gram-negative bacteria: E. coli BL21; details: 5×10^5 CFU/mL
Procedure, shortened: (§1)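 Bacteria grown in LB at 37° C to McFarland 0.5, resuspended and seeded at 5×10^5 CFU/mL in 96-well plates. Purified human EGF-domain proteins two-fold serially diluted, triplicate wells; cultured at 37° C, shaking 175 rpm. MIC = lowest protein concentration with no growth.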

[3] = tested on: Pseudomonas aeruginosa; experiment: MIC against Gram-negative bacteria: Pseudomonas aeruginosa; details: 5×10^5 CFU/mL; for MIC against P. aeruginosa: Pseudomonas aeruginosa
Procedure, shortened: as §1

[4] = tested on: Klebsiella pneumonia; experiment: MIC against Gram-negative bacteria: Klebsiella pneumonia; details: 5×10^5 CFU/mL; for MIC against K. pneumonia: Klebsiella pneumonia
Procedure, shortened: as §1

[5] = tested on: Enterobacter cloacae; experiment: MIC against Gram-negative bacteria: Enterobacter cloacae; details: 5×10^5 CFU/mL; for MIC against E. cloacae: Enterobacter cloacae
Procedure, shortened: as §1

[6] = tested on: Aeromonas hydrophila; experiment: MIC against Gram-negative bacteria: Aeromonas hydrophila; details: 5×10^5 CFU/mL; for MIC against A. hydrophila: Aeromonas hydrophila
Procedure, shortened: as §1

[7] = tested on: Citrobacter diversus; experiment: MIC against Gram-negative bacteria: Citrobacter diversus; details: 5×10^5 CFU/mL; for MIC against C. diversus: Citrobacter diversus
Procedure, shortened: as §1

[8] = tested on: Moraxella catarrhalis; experiment: MIC against Gram-negative bacteria: Moraxella catarrhalis; details: 5×10^5 CFU/mL; for MIC against M. catarrhalis: Moraxella catarrhalis
Procedure, shortened: as §1

[9] = tested on: Proteus mirabilis; experiment: MIC against Gram-negative bacteria: Proteus mirabilis; details: 5×10^5 CFU/mL; for MIC against P. mirabilis: Proteus mirabilis
Procedure, shortened: as §1

[10] = tested on: Proteus vulgaris; experiment: MIC against Gram-negative bacteria: Proteus vulgaris; details: 5×10^5 CFU/mL; for MIC against P. vulgaris: Proteus vulgaris
Procedure, shortened: as §1

[11] = tested on: Serratia marcescens; experiment: MIC against Gram-negative bacteria: Serratia marcescens; details: 5×10^5 CFU/mL; for MIC against S. marcescens: Serratia marcescens
Procedure, shortened: as §1

[12] = E. coli BL21, 10 h cultivation at 37° C.

Substance	MIC [1] [µg/mL]	MIC E. coli BL21 ([2]; 96-well plate, 37° C., 10 h) [µg/mL]	MIC P. aeruginosa ([3]; 96-well plate, 37° C., 10 h) [µg/mL]	MIC K. pneumonia ([4]; 96-well plate, 37° C., 10 h) [µg/mL]	MIC E. cloacae ([5]; 96-well plate, 37° C., 10 h) [µg/mL]	MIC A. hydrophila ([6]; 96-well plate, 37° C., 10 h) [µg/mL]	MIC C. diversus ([7]; 96-well plate, 37° C., 10 h) [µg/mL]	MIC M. catarrhalis ([8]; 96-well plate, 37° C., 10 h) [µg/mL]	MIC P. mirabilis ([9]; 96-well plate, 37° C., 10 h) [µg/mL]	MIC P. vulgaris ([10]; 96-well plate, 37° C., 10 h) [µg/mL]	MIC S. marcescens ([11]; 96-well plate, 37° C., 10 h) [µg/mL]	MIC against E. coli BL21 [2, 12] [µg/mL]	MIC against P. aeruginosa ([3]; 10 h cultivation at 37° C.) [µg/mL]	MIC against K. pneumonia ([4]; 10 h cultivation at 37° C.) [µg/mL]	MIC against E. cloacae ([5]; 10 h cultivation at 37° C.) [µg/mL]	MIC against A. hydrophila ([6]; 10 h cultivation at 37° C.) [µg/mL]	MIC against C. diversus ([7]; 10 h cultivation at 37° C.) [µg/mL]	MIC against M. catarrhalis ([8]; 10 h cultivation at 37° C.) [µg/mL]	MIC against P. mirabilis ([9]; 10 h cultivation at 37° C.) [µg/mL]	MIC against P. vulgaris ([10]; 10 h cultivation at 37° C.) [µg/mL]	other results
PRT627 (CTCNPAGSLDTCDPRSGRCPCKENVEGNLCDRCRPGTFNLQPHNPAGCSS; listed as Homo sapiens)	12.5	25	12.5	12.5	12.5	12.5	12.5	12.5	50	12.5	50										
PRT1373 (STRSCPGGCRGRGQCLDGRCVCEDGYSGEDC; listed as Homo sapiens)	25											12.5	12.5	12.5	12.5	12.5	50	12.5	25	50	MIC against S. marcescens ([11]; 10 h cultivation at 37° C.): 12.5 µg/mL
PRT236 (TKTSCAKCPPNASCVNNTHCTCNHGYTSGSGQKLFTFPLETCN; listed as Homo sapiens)	12.5																				MIC (μg/mL) E. coli BL21 [2, 12]: 12.5 µg/mL; MIC (μg/mL) P. aeruginosa ([3]; P. aeruginosa, 10 h cultivation at 37° C.): 100 µg/mL; MIC (μg/mL) K. pneumonia ([4]; K. pneumonia, 10 h cultivation at 37° C.): 12.5 µg/mL; MIC (μg/mL) E. cloacae ([5]; E. cloacae, 10 h cultivation at 37° C.): 12.5 µg/mL; MIC (μg/mL) A. hydrophila ([6]; A. hydrophila, 10 h cultivation at 37° C.): 25 µg/mL; MIC (μg/mL) C. diversus ([7]; C. diversus, 10 h cultivation at 37° C.): 12.5 µg/mL; MIC (μg/mL) M. catarrhalis ([8]; M. catarrhalis, 10 h cultivation at 37° C.): 25 µg/mL; MIC (μg/mL) P. mirabilis ([9]; P. mirabilis, 10 h cultivation at 37° C.): 12.5 µg/mL; MIC (μg/mL) P. vulgaris ([10]; P. vulgaris, 10 h cultivation at 37° C.): 25 µg/mL; MIC (μg/mL) S. marcescens ([11]; S. marcescens, 10 h cultivation at 37° C.): 12.5 µg/mL
PRT1456 (DYDECERKEDDCVPGTSCRNTLGSFTCSCEGGAPDFPVEYSE; listed as Homo sapiens)	12.5											25	12.5	50	25	12.5	25	50	12.5	12.5	MIC against S. marcescens ([11]; 10 h cultivation at 37° C.): 12.5 µg/mL
PRT1330 (VVDFCKQDNGGCAKVARCSQKGTKVSCSCQKGYKGDGHSCT; listed as Homo sapiens)	12.5																				MIC against E. coli BL21 ([2]; E. coli BL21, 96-well plate, 37° C., 10 h): 12.5 µg/mL; MIC against P. aeruginosa ([3]; 96-well plate, 37° C., 10 h): 12.5 µg/mL; MIC against K. pneumonia ([4]; 96-well plate, 37° C., 10 h): 12.5 µg/mL; MIC against E. cloacae ([5]; 96-well plate, 37° C., 10 h): 50 µg/mL; MIC against A. hydrophila ([6]; 96-well plate, 37° C., 10 h): 12.5 µg/mL; MIC against C. diversus ([7]; 96-well plate, 37° C., 10 h): 50 µg/mL; MIC against M. catarrhalis ([8]; 96-well plate, 37° C., 10 h): 25 µg/mL; MIC against P. mirabilis ([9]; 96-well plate, 37° C., 10 h): 12.5 µg/mL; MIC against P. vulgaris ([10]; 96-well plate, 37° C., 10 h): 25 µg/mL; MIC against S. marcescens ([11]; 96-well plate, 37° C., 10 h): 50 µg/mL
PRT719 (CNNPCEQFNGGCSHICAPGPNGAECQCPHEGNWYLANNRKHCI; listed as Homo sapiens)	50	12.5	50	12.5	50	12.5	50	50	50	50	50										
